Data set [1] addresses T1, Solute carrier family 22 member 1 (Rattus norvegicus, UniProt Q63089).
T1 sequence (Q63089 whole entry): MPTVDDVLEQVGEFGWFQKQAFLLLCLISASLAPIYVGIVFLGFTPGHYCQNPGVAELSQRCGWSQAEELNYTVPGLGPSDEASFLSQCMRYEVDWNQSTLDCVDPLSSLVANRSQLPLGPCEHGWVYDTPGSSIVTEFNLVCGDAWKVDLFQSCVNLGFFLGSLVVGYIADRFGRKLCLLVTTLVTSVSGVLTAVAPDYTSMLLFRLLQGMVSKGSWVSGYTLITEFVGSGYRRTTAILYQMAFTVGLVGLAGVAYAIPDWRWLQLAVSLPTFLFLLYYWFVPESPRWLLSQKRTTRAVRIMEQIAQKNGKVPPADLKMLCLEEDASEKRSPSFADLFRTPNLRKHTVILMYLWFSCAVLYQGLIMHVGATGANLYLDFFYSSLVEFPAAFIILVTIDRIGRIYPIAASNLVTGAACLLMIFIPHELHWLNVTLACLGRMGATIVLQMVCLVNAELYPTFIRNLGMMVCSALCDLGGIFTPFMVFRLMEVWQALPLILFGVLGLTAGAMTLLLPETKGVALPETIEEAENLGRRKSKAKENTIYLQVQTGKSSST
The experiment in a line: (§1) TP_TRANSPORTER: uptake in Xenopus laevis oocytes. It counts as functional, cell-based. The conditions noted are these: oocyte.

In data set [2] the target is T2, Solute carrier family 22 member 2 (Rattus norvegicus, UniProt Q9R0W2).
T2 sequence (Q9R0W2 whole entry): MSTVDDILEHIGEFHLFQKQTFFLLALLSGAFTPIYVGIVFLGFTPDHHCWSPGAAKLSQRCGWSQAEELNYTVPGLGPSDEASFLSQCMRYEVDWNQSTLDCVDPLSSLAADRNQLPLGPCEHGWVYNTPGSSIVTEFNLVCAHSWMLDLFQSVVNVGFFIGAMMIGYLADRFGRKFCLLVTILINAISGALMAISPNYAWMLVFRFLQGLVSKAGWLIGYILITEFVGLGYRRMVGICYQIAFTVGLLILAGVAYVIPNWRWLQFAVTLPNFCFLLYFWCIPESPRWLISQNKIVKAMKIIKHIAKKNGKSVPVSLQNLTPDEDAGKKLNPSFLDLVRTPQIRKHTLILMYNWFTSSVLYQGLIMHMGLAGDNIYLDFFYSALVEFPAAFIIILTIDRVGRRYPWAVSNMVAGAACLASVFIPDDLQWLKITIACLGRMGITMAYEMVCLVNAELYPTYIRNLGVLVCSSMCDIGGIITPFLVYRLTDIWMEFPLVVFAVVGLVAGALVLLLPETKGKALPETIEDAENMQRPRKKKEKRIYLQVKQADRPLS
Described as §1. It counts as functional, cell-based. The note with it: oocyte.

Data set [3] has as its target T1, Solute carrier family 22 member 1. Put plainly: TP_TRANSPORTER: inhibition of dTub uptake in Xenopus laevis oocytes.
For data set [4] the target is unchanged. The experiment in a line: TP_TRANSPORTER: inhibition of TEA uptake in Xenopus laevis oocytes. The class given is functional, cell-based, Oocyte.
Substrate in data set [5]: CC[N+](CC)(CC)CC
Put plainly: cells, lysate or membranes named.

As a reminder, the Ki is the equilibrium dissociation constant of an inhibitor or competing ligand from its target. Higher therefore signals lower affinity. By Km is commonly meant the concentration of substrate that gives half-maximal velocity.

`Nc1ccn([C@@H]2O[C@H](CO)[C@@H](O)[C@@H]2O)c(=O)n1` [CYTARABINE]: the Activity entry in data set [1] is “substrate [+]”; in data set [2], “is not a substrate [-]”.
Regarding `CC[N+](CC)(CC)CC` [TETRYLAMMONIUM], affinity in data set [3] was put at a Ki of 286 µM.
In the case of `Cc1cn([C@H]2C[C@H](N=[N+]=[N-])[C@@H](CO)O2)c(=O)[nH]c1=O` [ZIDOVUDINE], the Activity result in data set [1] is “substrate [+]”; in data set [2], “is not a substrate [-]”.
In the case of `Nc1ncnc2c1ccn2[C@H]1C[C@H](O)[C@@H](CO)O1` [2'-Deoxytubercidin], the affinity in data set [4] corresponds to a Ki of 19 µM.
As for `Nc1nc(Cl)nc2c1ncn2[C@H]1C[C@H](O)[C@@H](CO)O1` [CLADRIBINE], the Activity entry in data set [1] is “substrate [+]”; in data set [2], “is not a substrate [-]”.

B1: Solute carrier family 22 member 1 (Rattus norvegicus) (protein)
chain: T1 sequence (Q63089 whole entry)
Turning to B1, the Km in data set [5] worked out at 251 µM.
